Assay results as given in patent US20230059136A1, “THE COMPOUNDS AND COMPOSITIONS FOR TREATING CONDITIONS ASSOCIATED WITH NLRP ACTIVITY” (Novartis AG, priority 2018, published 2023).
Like-named read-outs stand apart in the source and are kept apart here.

Tested on: IL-1β production in PMA-differentiated THP-1 cells
Assay: IL-1β production in PMA-differentiated THP-1 cells stimulated with gramicidin (hTHP-1 assay containing 2% fetal bovine serum)
Format: cell-based, human
Settings: Homo sapiens, THP-1, Table B1, 2% fetal bovine serum, read-out: hTHP-1 IC50 (Average IC50 of compounds in hTHP-1 assay)
How it was run: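 IL-1β release was read by HTRF on supernatants of 50,000 PMA-primed (20 ng/ml, 16-18 h) THP-1 cells/well in 2% FBS medium. Cells saw compound for 1 h (11-point titration from 100 μM, 0.37% DMSO) before a 2 h gramicidin (5 μM) challenge.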

`CC(C)c1cc(C#CC2CCOCC2)cc(C(C)C)c1CC(=O)N=S(N)(=O)c1cc(C(C)(C)O)n(-c2ccccc2)n1` (centres unmarked) [Example 229, N-(amino(5-(2-hydroxypropan-2-yl)-1-phenyl-1H-pyrazol-3-yl)(oxo)-λ^6-sulfaneylidene)-2-(2,6-diisopropyl-4-((tetrahydro-2H-pyran-4-yl)ethynyl)phenyl)acetamide] was tested. Which IC50 (class symbols) did it give?
Its IC50 is 1 to 5 µM.

`CC(C)c1cc(C(F)F)cc(C(C)C)c1CC(=O)N=S(N)(=O)c1ccc(CN(C)C)nc1` (centres unmarked) [Example 230, N-(amino(6-((dimethylamino)methyl)pyridin-3-yl)(oxo)-λ^6-sulfaneylidene)-2-(4-(difluoromethyl)-2,6-diisopropylphenyl)acetamide] was tested. Which IC50 (class symbols) did it give?
Its IC50 is 1 to 5 µM.

How did the IC50 (class symbols) turn out when `CC(C)c1cc2c(c(C(C)C)c1CC(=O)N=[S@@](N)(=O)c1cnc(C(C)(C)O)s1)OC(F)(F)O2` [Example 231] was run?
The IC50 was 0.2 to 1 µM.

`CC(C)c1cc2c(cnn2C)c(C(C)C)c1CC(=O)N=[S@@](N)(=O)c1cnc(C(C)(C)O)s1` [Example 232, (R)-N-(amino(2-(2-hydroxypropan-2-yl)thiazol-5-yl)(oxo)-λ^6-sulfaneylidene)-2-(4,6-diisopropyl-1-methyl-1H-indazol-5-yl)acetamide] was tested. Which IC50 (class symbols) did it give?
The IC50 was 5 to 30 µM.

With `Cc1c2c(cc(C3CC3)c1CC(=O)N=[S@@](N)(=O)c1cnc(C(C)(C)O)s1)CCC2` [Example 233, (R)-N-(amino(2-(2-hydroxypropan-2-yl)thiazol-5-yl)(oxo)-λ^6-sulfaneylidene)-2-(6-cyclopropyl-4-methyl-2,3-dihydro-1H-inden-5-yl)acetamide] as the compound, how does the IC50 (class symbols) read?
The IC50 was 5 to 30 µM.

With `COCc1cc(C(C)C)c(CC(=O)N=S(N)(=O)c2ncc(C(C)(C)O)s2)c(C(C)C)n1` (centres unmarked) [Example 236, N-(amino(5-(2-hydroxypropan-2-yl)thiazol-2-yl)(oxo)-λ^6-sulfaneylidene)-2-(2,4-diisopropyl-6-(methoxymethyl)pyridin-3-yl)acetamide] as the compound, how does the IC50 (class symbols) read?
The IC50 was 1 to 5 µM.

Which IC50 (class symbols) does the source give for `CC(C)c1cc(C#N)nc(C(C)C)c1CC(=O)NS(=N)(=O)c1sc(C(C)(C)O)nc1CO` (centres unmarked) [Example 237, 2-(6-cyano-2,4-diisopropylpyridin-3-yl)-N-(4-(hydroxymethyl)-2-(2-hydroxypropan-2-yl)thiazole-5-sulfonimidoyl)acetamide] here?
The IC50 was 5 to 30 µM.

For `CC(C)c1cc(C#N)c(F)c(C(C)C)c1CC(=O)N=S(N)(=O)c1cnc(C(C)(O)CO)s1` (centres unmarked) [Example 238, N-(amino(2-(1,2-dihydroxypropan-2-yl)thiazol-5-yl)(oxo)-λ^6-sulfaneylidene)-2-(4-cyano-3-fluoro-2,6-diisopropylphenyl) acetamide], which IC50 (class symbols) is on record?
Its IC50 is 1 to 5 µM.

For `CC(C)c1cc(C#N)c(F)c(C(C)C)c1CC(=O)N=S(N)(=O)c1cc(C(C)(C)O)n(-c2ccccc2)n1` (centres unmarked) [Example 239, N-(amino(5-(2-hydroxypropan-2-yl)-1-phenyl-1H-pyrazol-3-yl)(oxo)-λ^6-sulfaneylidene)-2-(4-cyano-3-fluoro-2,6-diisopropylphenyl)acetamide], which IC50 (class symbols) is on record?
The IC50 was 1 to 5 µM.

`CC(C)c1cc(C#CC2CCCC2)cc(C(C)C)c1CC(=O)N=S(N)(=O)c1cc(C(C)(C)O)c(-c2ccccc2)s1` (centres unmarked) [Example 240, N-(amino(4-(2-hydroxypropan-2-yl)-5-phenylthiophen-2-yl)(oxo)-λ^6-sulfaneylidene)-2-(4-(cyclopentylethynyl)-2,6-diisopropylphenyl)acetamide] was tested. Which IC50 (class symbols) did it give?
The IC50 was 5 to 30 µM.

How did the IC50 (class symbols) turn out when `CC(C)c1cc(COC2CCCC2)cc(C(C)C)c1CC(=O)N=S(N)(=O)c1cc(C(C)(C)O)n(-c2ccc(F)cc2)n1` (centres unmarked) [Example 241, N-(amino(1-(4-fluorophenyl)-5-(2-hydroxypropan-2-yl)-1H-pyrazol-3-yl)(oxo)-λ^6-sulfaneylidene)-2-(4-((cyclopentyloxy)methyl)-2,6-diisopropylphenyl)acetamide] was run?
The IC50 was 5 to 30 µM.

With `CC(C)(O)c1ncc(S(N)(=O)=NC(=O)Cc2cc3c(c4c2CCC4)CCC3)s1` (centres unmarked) [Example 242, N-(amino(2-(2-hydroxypropan-2-yl)thiazol-5-yl)(oxo)-λ^6-sulfaneylidene)-2-(1,2,3,6,7,8-hexahydro-as-indacen-4-yl)acetamide] as the compound, how does the IC50 (cells printed as numeric bound) read?
Its IC50 is > 30 µM.

With `CC(C)c1cc2c(c(C(C)C)c1CC(=O)N=S(N)(=O)c1ccn(C(F)F)n1)COC2` (centres unmarked) [Example 243, N-(amino(1-(difluoromethyl)-1H-pyrazol-3-yl)(oxo)-λ^6-sulfaneylidene)-2-(4,6-diisopropyl-1,3-dihydroisobenzofuran-5-yl) acetamide] as the compound, how does the IC50 (class symbols) read?
The IC50 was 5 to 30 µM.

For `CCc1c2c(cc(C(C)C)c1CC(=O)N=S(N)(=O)c1cc(C(C)(C)O)cs1)COC2` (centres unmarked) [Example 244, N-(amino (4-(2-hydroxypropan-2-yl)thiophen-2-yl)(oxo)-λ^6-sulfaneylidene)-2-(4-ethyl-6-isopropyl-1,3-dihydroisobenzofuran-5-yl) acetamide], which IC50 (class symbols) is on record?
The IC50 was 1 to 5 µM.

For `CCc1cc2c(c(C(C)C)c1CC(=O)N=S(N)(=O)c1cc(C(C)(C)O)cs1)COC2` (centres unmarked) [Example 245, N-(amino (4-(2-hydroxypropan-2-yl)thiophen-2-yl)(oxo)-λ^6-sulfaneylidene)-2-(6-ethyl-4-isopropyl-1,3-dihydroisobenzofuran-5-yl) acetamide], which IC50 (class symbols) is on record?
Its IC50 is 1 to 5 µM.

`CC(C)c1cc2c(c(C(C)C)c1CC(=O)N=S(N)(=O)c1sc(C(C)(C)O)cc1F)COC2` (centres unmarked) [Example 246, N-(amino(3-fluoro-5-(2-hydroxypropan-2-yl)thiophen-2-yl)(oxo)-λ^6-sulfaneylidene)-2-(4,6-diisopropyl-1,3-dihydroisobenzofuran-5-yl) acetamide] was tested. Which IC50 (class symbols) did it give?
The IC50 was 0.04 to 0.2 µM.

`CC(C)c1cc(C#N)c(F)c(C(C)C)c1CC(=O)N=S(N)(=O)c1cc(C(C)(O)CO)n(-c2ccccc2)n1` (centres unmarked) [Example 247, N-(amino(5-(1,2-dihydroxypropan-2-yl)-1-phenyl-1H-pyrazol-3-yl)(oxo)-λ^6-sulfaneylidene)-2-(4-cyano-3-fluoro-2,6-diisopropylphenyl)acetamide] was tested. Which IC50 (class symbols) did it give?
Its IC50 is 1 to 5 µM.

How did the IC50 (class symbols) turn out when `CC(C)c1cc(C(F)F)nc(C(C)C)c1CC(=O)N=S(N)(=O)c1sc(CN(C)C)cc1F` (centres unmarked) [Example 248, N-(amino(5-((dimethylamino)methyl)-3-fluorothiophen-2-yl)(oxo)-λ^6-sulfaneylidene)-2-(6-(difluoromethyl)-2,4-diisopropylpyridin-3-yl)acetamide] was run?
The IC50 was 1 to 5 µM.

How did the IC50 (class symbols) turn out when `CC(C)c1cc2c(c(C(C)C)c1CC(=O)N=S(N)(=O)c1sc(CN(C)C)cc1F)COC2` (centres unmarked) [Example 249, N-(amino(5-((dimethylamino)methyl)-3-fluorothiophen-2-yl)(oxo)-λ^6-sulfaneylidene)-2-(4,6-diisopropyl-1,3-dihydroisobenzofuran-5-yl)acetamide] was run?
The IC50 was 1 to 5 µM.

Which IC50 (class symbols) does the source give for `CC(C)c1cc(C(F)F)cc(C(C)C)c1CC(=O)N=S(N)(=O)c1ncc(CN(C)C)cc1F` (centres unmarked) [Example 250] here?
The IC50 was 5 to 30 µM.

For `CC(C)c1cc(COC2CCCC2)cc(C(C)C)c1CC(=O)N=S(N)(=O)c1cnc(C(C)(O)CO)s1` (centres unmarked) [Example 251, N-(amino(2-(1,2-dihydroxypropan-2-yl)thiazol-5-yl)(oxo)-λ^6-sulfaneylidene)-2-(4-((cyclopentyloxy)methyl)-2,6-diisopropylphenyl)acetamide], which IC50 (class symbols) is on record?
The IC50 was 0.2 to 1 µM.

`CC(C)c1cc2c(c(C(C)C)c1CC(=O)N=S(N)(=O)c1cnc(C(C)(O)CO)s1)COC2` (centres unmarked) [Example 252, N-(amino(2-(1,2-dihydroxypropan-2-yl)thiazol-5-yl) (oxo)-λ^6-sulfaneylidene)-2-(4,6-diisopropyl-1,3-dihydroisobenzofuran-5-yl)acetamide] was tested. Which IC50 (class symbols) did it give?
Its IC50 is 1 to 5 µM.

With `CC(C)c1cc(-c2ccc3c(c2)CCOC3)cc(C(C)C)c1CC(=O)N=S(N)(=O)c1cnc(C(C)(O)CO)s1` (centres unmarked) [Example 253, N-(amino(2-(1,2-dihydroxypropan-2-yl)thiazol-5-yl) (oxo)-λ^6-sulfaneylidene)-2-(4-(isochroman-6-yl)-2,6-diisopropylphenyl)acetamide] as the compound, how does the IC50 (class symbols) read?
The IC50 was 1 to 5 µM.

For `CNCc1ccc(S(N)(=O)=NC(=O)Cc2c(C(C)C)cc(C(F)F)nc2C(C)C)cc1` (centres unmarked) [Example 254, N-(amino(4-((methylamino)methyl)phenyl)(oxo)-λ^6-sulfaneylidene)-2-(6-(difluoromethyl)-2,4-diisopropylpyridin-3-yl)acetamide], which IC50 (class symbols) is on record?
The IC50 was 5 to 30 µM.

For `CNCc1ccc(S(N)(=O)=NC(=O)Cc2c(C(C)C)cc(C(F)F)cc2C(C)C)cc1` (centres unmarked) [Example 255, N-(amino(4-((methylamino)methyl)phenyl)(oxo)-λ^6-sulfaneylidene)-2-(4-(difluoromethyl)-2,6-diisopropylphenyl)acetamide], which IC50 (class symbols) is on record?
Its IC50 is 5 to 30 µM.

How did the IC50 (class symbols) turn out when `CC(C)c1cc2c(c(C(C)C)c1CC(=O)N=S(N)(=O)c1cnc(C(C)(C)O)s1)COC2=O` (centres unmarked) [Example 256, N-(amino(2-(2-hydroxypropan-2-yl)thiazol-5-yl) (oxo)-λ^6-sulfaneylidene)-2-(4,6-diisopropyl-1-oxo-1,3-dihydroisobenzofuran-5-yl)acetamide] was run?
Its IC50 is 5 to 30 µM.

`CC(C)c1cc(C(F)F)cc(C(C)C)c1CC(=O)N=S(N)(=O)c1ccc(CN(C)C)cc1` (centres unmarked) [Example 257, N-(amino(4-((dimethylamino)methyl)phenyl) (oxo)-λ^6-sulfaneylidene)-2-(4-(difluoromethyl)-2,6-diisopropylphenyl)acetamide] was tested. Which IC50 (class symbols) did it give?
Its IC50 is 1 to 5 µM.

With `CC(C)c1cc(C(F)F)nc(C(C)C)c1CC(=O)N=S(N)(=O)c1ccc(CN(C)C)cc1` (centres unmarked) [Example 258, N-(amino(4-((dimethylamino)methyl)phenyl) (oxo)-λ^6-sulfaneylidene)-2-(6-(difluoromethyl)-2,4-diisopropylpyridin-3-yl)acetamide] as the compound, how does the IC50 (class symbols) read?
Its IC50 is 1 to 5 µM.

How did the IC50 (class symbols) turn out when `CCc1c2c(cc(C(C)C)c1CC(=O)N=S(N)(=O)c1cnc(C(C)(C)O)s1)COC2` (centres unmarked) [Example 259, N-(amino(2-(2-hydroxypropan-2-yl)thiazol-5-yl)(oxo)-λ^6-sulfaneylidene)-2-(4-ethyl-6-isopropyl-1,3-dihydroisobenzofuran-5-yl)acetamide] was run?
The IC50 was 5 to 30 µM.
